{"source": "paper PMC4261997", "about": "(British Journal of Pharmacology, 2014)", "key": {"human β1-adrenoceptor [1]": {"target": "T1, human β1-adrenoceptor (Homo sapiens, UniProt P08588)", "T1 sequence (P08588 whole entry)": "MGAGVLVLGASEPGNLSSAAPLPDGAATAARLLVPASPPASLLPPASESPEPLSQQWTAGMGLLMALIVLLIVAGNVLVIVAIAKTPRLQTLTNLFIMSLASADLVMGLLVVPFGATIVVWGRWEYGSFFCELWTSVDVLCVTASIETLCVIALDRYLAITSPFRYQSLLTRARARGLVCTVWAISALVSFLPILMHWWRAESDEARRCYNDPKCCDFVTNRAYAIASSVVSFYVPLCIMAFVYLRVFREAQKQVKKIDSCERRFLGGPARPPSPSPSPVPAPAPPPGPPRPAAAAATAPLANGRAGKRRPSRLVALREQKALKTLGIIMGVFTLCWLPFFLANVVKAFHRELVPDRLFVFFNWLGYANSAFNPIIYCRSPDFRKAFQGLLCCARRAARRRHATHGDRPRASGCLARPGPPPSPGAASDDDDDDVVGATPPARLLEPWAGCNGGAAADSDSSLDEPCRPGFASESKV", "assay": "CRE-mediated SPAP transcription reporter gene assay in CHO-β1 cells", "assay_type": "cell-based", "details": "for Proportion of low-affinity secondary site (site 2) bound: calculated from affinity values of the functional responses"}, "β2-adrenoceptor": {"target": "β2-adrenoceptor", "details": "read-out: affinity value for the β2-adrenoceptor; ref Baker et al., [2003b]; cited from earlier work"}, "human β1-adrenoceptor [2]": {"target": "T1, human β1-adrenoceptor", "assay": "Automated live cell BODIPY-TMR-CGP binding, ImageXpress ultra confocal plate reader, CHO-β1 cells", "details": "100 nM BOD-CGP; from two-site inhibition curve of the named antagonist, 1 h incubations"}}, "data": [{"substance": "Bordifluoropyrromethane-tetramethylrhodamine-(±)CGP 12177 [BODIPY-TMR-CGP]", "values": [{"measurement": "Proportion of low-affinity secondary site (site 2) bound", "setting": "human β1-adrenoceptor [1]; 2 nM BODIPY-TMR-CGP", "result": 2, "unit": "%"}, {"measurement": "Proportion of low-affinity secondary site (site 2) bound", "setting": "human β1-adrenoceptor [1]; 20 nM BODIPY-TMR-CGP", "result": "circa 17%"}, {"measurement": "EMAX (% cimaterol)", "setting": "human β1-adrenoceptor [1]; % of the maximum cimaterol response, CHO-β1 cells", "result": "25.6 ± 3.2", "unit": "%"}, {"measurement": "pEC50", "setting": "human β1-adrenoceptor [1]; agonist stimulation of SPAP transcription, CHO-β1 cells", "result": "7.12 ± 0.13"}, {"measurement": "pKD (against CGP 12177)", "setting": "human β1-adrenoceptor [1]; antagonism of CGP 12177 concentration-response curves, low-affinity site 2", "result": "7.28 ± 0.22"}, {"measurement": "pKD (against cimaterol)", "setting": "human β1-adrenoceptor [1]; antagonism of cimaterol concentration-response curves, high-affinity site 1", "result": "9.23 ± 0.06"}, {"measurement": "pKA (partial agonism)", "setting": "human β1-adrenoceptor [1]; from partial agonist concentration-response curve, operational model, cimaterol as full agonist, site 2", "result": "7.06 ± 0.13"}, {"measurement": "Kd", "setting": "β2-adrenoceptor", "result": 25, "unit": "nM"}, {"measurement": "Fraction of BOD-CGP bound to the low-affinity binding site (%)", "setting": "human β1-adrenoceptor [2]", "result": "42.8 ± 0.9", "unit": "%"}]}]}
